In PubChem BioAssay (NCI):
“And” between values parts separate entries of the source, which are not always exact repeats. Equal values may be shown once.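 The compound was tested at five concentrations on cells cultured in 96-well plates, with a 48-hour exposure period. Here, GI50 denotes the concentration required for 50% inhibition of growth. TGI: total growth inhibition.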

Columns and labels:
Assay in all cases: growth of human tumour cells (NCI), 48 h
K-562 leukemia = test system: K-562 leukemia
MOLT-4 leukemia = test system: MOLT-4 leukemia
SK-OV-3 ovarian = test system: SK-OV-3 ovarian
NCI-H226 lung = test system: NCI-H226 lung
SK-MEL-28 melanoma = test system: SK-MEL-28 melanoma
CCRF-CEM leukemia = test system: CCRF-CEM leukemia
KM12 colon = test system: KM12 colon
UACC-62 melanoma = test system: UACC-62 melanoma
HCC-2998 colon = test system: HCC-2998 colon
RPMI-8226 leukemia = test system: RPMI-8226 leukemia

| Structure (SMILES) | GI50 (K-562 leukemia) | TGI (K-562 leukemia) | GI50 (MOLT-4 leukemia) | TGI (SK-OV-3 ovarian) | GI50 (NCI-H226 lung) | TGI (NCI-H226 lung) | GI50 (SK-MEL-28 melanoma) | GI50 (CCRF-CEM leukemia) | TGI (CCRF-CEM leukemia) | GI50 (KM12 colon) | GI50 (UACC-62 melanoma) | GI50 (HCC-2998 colon) | TGI (HCC-2998 colon) | TGI (MOLT-4 leukemia) | TGI (SK-MEL-28 melanoma) | TGI (UACC-62 melanoma) | TGI (RPMI-8226 leukemia) | TGI (KM12 colon) | GI50 (SK-OV-3 ovarian) | GI50 (RPMI-8226 leukemia) |
| --- | --- | --- | --- | --- | --- | --- | --- | --- | --- | --- | --- | --- | --- | --- | --- | --- | --- | --- | --- | --- |
| COC1C(C)OC(OC2CC(C)(O)Cc3cc4c(c(O)c32)C(=O)c2c(O)cc3c(c2C4=O)OC2OC3(C)C(O)C(N(C)C)C2O)C(OC)C1(C)OC (stereo not drawn) | 0.0272 µM and 0.0636 µM | 1.94 µM and 1.51 µM | 0.0366 µM and 0.02 µM | 1.52 µM and 10.7 µM | 0.0198 µM | 0.395 µM and 0.113 µM | 0.0687 µM and 0.0334 µM | 0.0584 µM and 0.0612 µM | 0.872 µM and 1.32 µM | 0.0639 µM and 0.0289 µM | 0.00441 µM and 0.0312 µM | 0.0393 µM | 0.447 µM and 0.178 µM |  |  |  |  |  |  |  |
| COc1cc2oc(-c3ccc(O)cc3)cc(=O)c2c(OC)c1O |  | > 100 µM |  | > 100 µM |  | > 100 µM |  |  | > 100 µM |  |  |  | > 100 µM | > 100 µM | > 100 µM | > 100 µM | > 100 µM |  |  |  |
| COC(=O)[C@H](C)[C@@H]1CC[C@](C)(CCC2=C(C)CCCC2(C)C)OO1 |  | > 25 µM |  | > 25 µM |  |  |  |  | > 25 µM |  |  |  | > 25 µM | > 25 µM | > 25 µM | > 25 µM | > 25 µM | > 25 µM |  |  |
| CNC(=O)c1cc(Oc2ccc3nc(NC(=O)Nc4cc(C(F)(F)F)cc(C(F)(F)F)c4)sc3c2)ccn1 | 0.784 µM | 4.86 µM |  | 3.18 µM | 1.45 µM | 3.57 µM | 1.29 µM | 1.07 µM | 5.83 µM | 0.444 µM | 0.583 µM | 1.33 µM | 3.23 µM |  | 2.93 µM | 2.1 µM | 3.81 µM | 2 µM | 1.43 µM | 1.02 µM |
| COc1ccc(NC(=O)C2=CC(=O)c3ccc(O)cc3C2=O)c(OC)c1 |  | > 100 µM |  |  |  | > 100 µM |  |  | > 100 µM |  |  |  | > 100 µM | > 100 µM | > 100 µM | > 100 µM | > 100 µM | > 100 µM |  |  |
| CSCC(COC(C)=O)(CSC)c1ccncc1 |  | > 100 µM |  | > 100 µM |  |  |  |  | > 100 µM |  |  |  | > 100 µM | > 100 µM | > 100 µM | > 100 µM | > 100 µM | > 100 µM |  |  |
| CCN(CC)CCNC(=O)C(Cl)=C1C(Cl)=C(Cl)C(Cl)=C1Cl | 3.56 µM | > 100 µM |  | > 100 µM | 4.08 µM | 35.8 µM | 2.45 µM | 3.15 µM | > 100 µM | 2.75 µM | 2.18 µM | 8.08 µM | 22.8 µM |  | 7.11 µM | 12.4 µM | 10.8 µM | 10.6 µM | 3.21 µM | 3.02 µM |
| CC(C)OC(=O)c1cccnc1/C=N/O |  | > 100 µM |  | > 100 µM |  | > 100 µM |  |  | > 100 µM |  |  |  | > 100 µM | > 100 µM |  | > 100 µM | > 100 µM | > 100 µM |  |  |
| COc1cc(OC)c(/C=C/C(=O)c2c(O)cc(OC)c(C3CCN(C)CC3)c2OC)c(OC)c1 |  |  | 1.63 µM |  |  |  |  | 1.18 µM | 2.78 µM | 1.71 µM |  | 1.46 µM | 2.82 µM | 3.61 µM |  |  | 2.83 µM | 3.38 µM |  | 1.11 µM |
| O=C(O)c1ccccc1C1c2ccc(Cl)cc2Oc2cc(Cl)ccc21 |  | > 100 µM |  | > 100 µM |  |  |  |  | > 100 µM |  |  |  | > 100 µM | > 100 µM | > 100 µM | > 100 µM | > 100 µM | > 100 µM |  |  |
